In ChEMBL document CHEMBL5223162, “Discovery of Pyrazolopyridine Derivatives as HPK1 Inhibitors” (ACS Med Chem Lett, 2023):

How the values were obtained:
[1] = target: T1, Mitogen-activated protein kinase kinase kinase kinase 1 (Homo sapiens, UniProt Q92918); assay: Inhibition of human HPK1 in human Jurkat cells assessed as reduction in SLP76 phosphorylation incubated for 1 hr by HTRF assay; assay type: cell-based
[2] = Intrinsic clearance in human liver microsomes at 1 uM and measured upto 30 mins in presence of NADPH by LC-MS analysis; assay type: ADME, Microsome; conditions: read-out: CLH (converted)
[3] = target: T1, Mitogen-activated protein kinase kinase kinase kinase 1; assay: Binding affinity to recombinant human HPK1 (1 to 346 residues) expressed sf9 cells incubated for 1 hr by LanthaScreen assay
[4] = Clearance in cynomolgus monkey at 1 mg/kg, iv and measured upto 24 hrs by LC-MS/MS analysis; assay type: ADME, organism-based, Macaca fascicularis; conditions: in vivo
[5] = Oral bioavailability in cynomolgus monkey at 3 mg/kg and measured upto 24 hrs by LC-MS/MS analysis; assay type: ADME, organism-based, Macaca fascicularis; conditions: in vivo
[6] = Permeability across apical to basolateral side in human Caco2 cells at 50 uM and measured after 120 mins by LC-MS analysis; assay type: ADME, cell-based; conditions: Caco-2, read-out: permeability
[7] = Volume of distribution at steady state in cynomolgus monkey at 1 mg/kg, iv and measured upto 24 hrs by LC-MS/MS analysis; assay type: ADME, organism-based, Macaca fascicularis; conditions: in vivo
[8] = AUC in cynomolgus monkey at 3 mg/kg, po and measured upto 24 hrs by LC-MS/MS analysis; assay type: ADME, organism-based, Macaca fascicularis; set-up: dose 3 mg/kg, time < 24 hrs, route po; conditions: in vivo
[9] = Half life in cynomolgus monkey at 1 mg/kg, iv and measured upto 24 hrs by LC-MS/MS analysis; assay type: ADME, organism-based, Macaca fascicularis; conditions: in vivo
[10] = AUC in Sprague-Dawley rat at 3 mg/kg, po and measured upto 24 hrs by LC-MS/MS analysis; assay type: ADME, organism-based; set-up: dose 3 mg/kg, time < 24 hrs, route po; conditions: in vivo
[11] = Clearance in Sprague-Dawley rat at 1.5 mg/kg, iv and measured upto 24 hrs by LC-MS/MS analysis; assay type: ADME, organism-based; conditions: in vivo
[12] = Fraction unbound in human plasma by LC-MS/MS analysis; assay type: ADME, cell-free
[13] = target: T2, Cytochrome P450 3A4 (Homo sapiens, UniProt P08684); assay: Inhibition of CYP3A4 in human liver microsomes using testosterone as substrate by LC-MS analysis; assay type: ADME, Microsome
[14] = target: T3, Receptor-type tyrosine-protein kinase FLT3 (Homo sapiens, UniProt P36888); assay: Inhibition of FLT3 (unknown origin) in presence of ATP
T3 sequence (P36888 whole entry): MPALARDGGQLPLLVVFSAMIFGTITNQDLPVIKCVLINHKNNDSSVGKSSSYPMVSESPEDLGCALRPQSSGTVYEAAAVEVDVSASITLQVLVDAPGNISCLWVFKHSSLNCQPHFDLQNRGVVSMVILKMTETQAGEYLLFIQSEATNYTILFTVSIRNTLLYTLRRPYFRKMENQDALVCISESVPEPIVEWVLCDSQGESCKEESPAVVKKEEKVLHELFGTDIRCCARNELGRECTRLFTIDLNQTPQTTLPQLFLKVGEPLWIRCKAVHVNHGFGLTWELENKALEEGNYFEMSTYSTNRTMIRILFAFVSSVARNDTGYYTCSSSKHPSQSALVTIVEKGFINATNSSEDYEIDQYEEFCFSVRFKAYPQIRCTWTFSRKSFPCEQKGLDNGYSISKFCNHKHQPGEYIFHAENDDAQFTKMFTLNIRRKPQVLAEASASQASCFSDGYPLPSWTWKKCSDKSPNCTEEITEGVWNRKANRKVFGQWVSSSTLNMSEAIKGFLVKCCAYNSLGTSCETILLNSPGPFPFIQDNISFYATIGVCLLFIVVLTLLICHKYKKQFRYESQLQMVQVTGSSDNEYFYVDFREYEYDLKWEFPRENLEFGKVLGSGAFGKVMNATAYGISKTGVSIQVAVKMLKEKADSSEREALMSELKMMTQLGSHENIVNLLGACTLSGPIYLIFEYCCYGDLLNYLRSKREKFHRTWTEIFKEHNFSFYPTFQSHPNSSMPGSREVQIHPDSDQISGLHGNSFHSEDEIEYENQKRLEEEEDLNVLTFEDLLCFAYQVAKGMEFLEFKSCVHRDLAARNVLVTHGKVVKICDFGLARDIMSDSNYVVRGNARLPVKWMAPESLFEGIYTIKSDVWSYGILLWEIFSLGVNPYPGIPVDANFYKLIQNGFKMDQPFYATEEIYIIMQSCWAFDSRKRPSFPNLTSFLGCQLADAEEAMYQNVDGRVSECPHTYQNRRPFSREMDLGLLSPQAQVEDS

[15] = target: Mast/stem cell growth factor receptor Kit (Homo sapiens, UniProt P10721); assay: Inhibition of KIT (unknown origin) in presence of ATP
[16] = target: T2, Cytochrome P450 3A4; assay: Inhibition of CYP3A4 in human liver microsomes using midazolam as substrate by LC-MS analysis; assay type: ADME, Microsome
[17] = target: Cytochrome P450 2C19 (Homo sapiens, UniProt P33261); assay: Time dependent inhibition of CYP2C19 in human liver microsomes using S mephenytoin as substrate by LC-MS analysis; assay type: ADME, Microsome; conditions: TDE = time-dependent effect
Sequence of Cytochrome P450 2C19 (P33261 whole entry): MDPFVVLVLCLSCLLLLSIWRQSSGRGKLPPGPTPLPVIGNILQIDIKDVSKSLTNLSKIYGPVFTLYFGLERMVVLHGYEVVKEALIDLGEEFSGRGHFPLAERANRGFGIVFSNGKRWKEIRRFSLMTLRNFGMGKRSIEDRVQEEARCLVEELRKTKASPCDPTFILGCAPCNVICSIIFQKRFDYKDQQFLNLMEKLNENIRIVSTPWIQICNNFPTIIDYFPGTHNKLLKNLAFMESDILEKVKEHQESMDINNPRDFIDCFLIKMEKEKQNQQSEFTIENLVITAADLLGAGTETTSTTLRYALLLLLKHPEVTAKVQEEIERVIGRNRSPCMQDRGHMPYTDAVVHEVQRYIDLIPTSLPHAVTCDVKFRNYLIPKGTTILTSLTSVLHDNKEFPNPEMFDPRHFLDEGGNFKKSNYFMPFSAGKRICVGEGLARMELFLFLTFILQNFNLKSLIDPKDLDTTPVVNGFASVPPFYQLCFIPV

T2 sequence (P08684 whole entry): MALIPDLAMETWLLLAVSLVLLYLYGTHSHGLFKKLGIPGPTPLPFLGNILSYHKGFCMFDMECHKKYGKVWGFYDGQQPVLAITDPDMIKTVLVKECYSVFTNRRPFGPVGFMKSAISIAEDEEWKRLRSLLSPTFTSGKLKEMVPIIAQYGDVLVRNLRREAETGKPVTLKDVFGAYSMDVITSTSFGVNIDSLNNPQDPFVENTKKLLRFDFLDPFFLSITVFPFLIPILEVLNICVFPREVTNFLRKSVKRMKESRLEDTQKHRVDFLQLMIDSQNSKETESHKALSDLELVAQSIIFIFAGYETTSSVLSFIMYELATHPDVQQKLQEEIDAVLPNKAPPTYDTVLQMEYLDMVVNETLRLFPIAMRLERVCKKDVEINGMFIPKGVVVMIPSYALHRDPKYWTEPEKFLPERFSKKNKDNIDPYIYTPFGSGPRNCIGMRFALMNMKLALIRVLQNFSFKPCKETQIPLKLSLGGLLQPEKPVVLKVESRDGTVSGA
Sequence of Mast/stem cell growth factor receptor Kit (P10721 whole entry): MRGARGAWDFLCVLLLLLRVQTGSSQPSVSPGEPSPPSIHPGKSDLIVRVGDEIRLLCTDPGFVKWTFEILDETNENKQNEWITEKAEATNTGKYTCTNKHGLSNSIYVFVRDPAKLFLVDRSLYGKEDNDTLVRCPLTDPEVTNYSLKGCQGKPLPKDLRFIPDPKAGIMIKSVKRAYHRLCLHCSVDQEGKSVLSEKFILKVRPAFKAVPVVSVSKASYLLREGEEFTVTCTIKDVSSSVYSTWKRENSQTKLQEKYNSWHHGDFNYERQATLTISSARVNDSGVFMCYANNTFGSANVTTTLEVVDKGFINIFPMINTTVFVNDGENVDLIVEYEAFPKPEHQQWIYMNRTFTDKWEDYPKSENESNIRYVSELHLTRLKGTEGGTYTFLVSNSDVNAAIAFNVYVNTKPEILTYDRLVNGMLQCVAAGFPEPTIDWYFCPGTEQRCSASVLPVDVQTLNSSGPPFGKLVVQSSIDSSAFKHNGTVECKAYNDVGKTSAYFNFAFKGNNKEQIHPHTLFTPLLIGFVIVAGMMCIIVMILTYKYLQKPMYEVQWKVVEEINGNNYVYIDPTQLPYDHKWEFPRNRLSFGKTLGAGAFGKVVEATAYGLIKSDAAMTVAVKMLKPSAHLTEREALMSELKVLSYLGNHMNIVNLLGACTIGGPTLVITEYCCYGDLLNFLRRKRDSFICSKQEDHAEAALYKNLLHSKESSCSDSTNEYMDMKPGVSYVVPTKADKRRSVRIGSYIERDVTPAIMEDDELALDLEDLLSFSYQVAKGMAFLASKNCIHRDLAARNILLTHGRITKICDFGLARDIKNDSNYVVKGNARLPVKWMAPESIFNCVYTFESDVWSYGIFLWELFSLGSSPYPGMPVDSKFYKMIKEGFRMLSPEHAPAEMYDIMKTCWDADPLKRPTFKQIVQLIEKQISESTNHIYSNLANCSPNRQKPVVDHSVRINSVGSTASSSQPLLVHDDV
T1 sequence (Q92918 whole entry): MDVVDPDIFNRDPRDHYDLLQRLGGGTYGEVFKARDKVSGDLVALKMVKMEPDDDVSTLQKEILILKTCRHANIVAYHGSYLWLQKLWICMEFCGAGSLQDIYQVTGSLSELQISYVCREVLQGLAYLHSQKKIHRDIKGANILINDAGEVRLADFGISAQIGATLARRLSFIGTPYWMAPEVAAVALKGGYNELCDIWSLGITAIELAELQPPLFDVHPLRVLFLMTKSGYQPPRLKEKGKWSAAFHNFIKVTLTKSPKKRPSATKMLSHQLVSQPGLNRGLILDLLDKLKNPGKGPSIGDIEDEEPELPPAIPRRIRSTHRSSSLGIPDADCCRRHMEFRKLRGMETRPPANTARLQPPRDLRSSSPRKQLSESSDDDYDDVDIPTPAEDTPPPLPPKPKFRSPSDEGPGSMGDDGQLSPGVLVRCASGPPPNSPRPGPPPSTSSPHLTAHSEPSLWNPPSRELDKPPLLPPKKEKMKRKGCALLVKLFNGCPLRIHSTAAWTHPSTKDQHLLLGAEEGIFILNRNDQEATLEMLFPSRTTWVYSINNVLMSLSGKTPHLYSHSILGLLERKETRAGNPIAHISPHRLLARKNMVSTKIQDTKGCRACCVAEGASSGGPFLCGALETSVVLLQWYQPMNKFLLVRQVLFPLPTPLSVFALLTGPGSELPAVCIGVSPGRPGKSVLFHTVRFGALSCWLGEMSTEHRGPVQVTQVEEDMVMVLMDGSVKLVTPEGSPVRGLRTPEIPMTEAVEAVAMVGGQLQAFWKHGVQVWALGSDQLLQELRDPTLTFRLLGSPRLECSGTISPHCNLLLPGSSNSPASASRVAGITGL

Row | Structure (SMILES) | IC50 [1] | CLint scaled at 1 µM [2] | Ki [3] | Papp A→B at 2 h, 50 µM [6] | also measured
1 | COc1cc(OC)c(F)c(-c2ncc3c(-c4ccc(N5CCN(C)CC5)cc4)n[nH]c3n2)c1F |  |  | 91 nM |  | 
2 | CNCc1cc(F)c(-c2cc3c(-c4cnn(C)c4)n[nH]c3cn2)c(F)c1 | 117 nM | < 8.33 mL/min/kg | 5.4 nM | 0.7 ×10⁻⁶ cm/s | IC50 [13]: > 25000 nM; IC50 [14]: 366 nM; IC50 [15]: 1080 nM; IC50 [16]: > 25000 nM
3 | Cc1cc(C2CCCCN2)cc(F)c1-c1cc2c(-c3cnn(C)c3)n[nH]c2cn1 (configuration not stated) | 138 nM | < 8.33 mL/min/kg | 4.6 nM | 0.4 ×10⁻⁶ cm/s | clearance [4]: 9 mL/min/kg; bioavailability [5]: 55%; Vdss [7]: 4.6 L/kg; AUC at 24 h [8]: 7.84 µM·h; half-life [9]: 8.9 h; AUC at 24 h [10]: 1.46 µM·h; clearance [11]: 80 mL/min/kg; fraction unbound [12]: 0.5
4 | CNCc1cc(C)c(-c2cc3c(-c4cnn(C)c4)n[nH]c3cn2)c(F)c1 | 91 nM | < 8.33 mL/min/kg | 2.7 nM | 1.1 ×10⁻⁶ cm/s | clearance [4]: 20 mL/min/kg; bioavailability [5]: 7%; IC50 [13]: > 25000 nM; IC50 [14]: 1510 nM; IC50 [15]: 7470 nM; Vdss [7]: 4.6 L/kg; AUC at 24 h [8]: 0.759 µM·h; half-life [9]: 5.5 h; inhibition (INH) [17]: Tde; AUC at 24 h [10]: 0.456 µM·h; clearance [11]: 118 mL/min/kg; IC50 [16]: > 25000 nM; fraction unbound [12]: 0.41
5 | CN1CCN(c2ccc(-c3n[nH]c4cc(-c5ccccc5)cnc34)cc2)CC1 |  |  | 1150 nM |  | 
6 | CNCc1cc(F)c(-c2cc3c(-c4cnn(C)c4)n[nH]c3cn2)c(OC)c1 | 219 nM | < 8.33 mL/min/kg | 3 nM | 0.2 ×10⁻⁶ cm/s | IC50 [14]: 260 nM; IC50 [15]: 857 nM
7 | CN1CCN(c2ccc(Nc3ncc4ccc(-c5ccccc5)cc4n3)cc2)CC1 |  |  | 492 nM |  | 

Continued, in another order:

Row | IC50 [1] | CLint scaled at 1 µM [2] | Ki [3] | Papp A→B at 2 h, 50 µM [6] | Structure (SMILES) | also measured
8 | 640 nM | 11.7 mL/min/kg | 12 nM |  | COc1cccc(F)c1-c1ncc2[nH]nc(-c3cnn(C)c3)c2n1 | 
9 | 94 nM | < 8.33 mL/min/kg | 4 nM | 0.2 ×10⁻⁶ cm/s | CNC(C)c1cc(C)c(-c2cc3c(-c4cnn(C)c4)n[nH]c3cn2)c(F)c1 (configuration not stated) | clearance [4]: 18.3 mL/min/kg; bioavailability [5]: 50%; Vdss [7]: 7.6 L/kg; AUC at 24 h [8]: 3.93 µM·h; half-life [9]: 8.6 h; AUC at 24 h [10]: 0.799 µM·h; clearance [11]: 93.3 mL/min/kg; fraction unbound [12]: 0.49
10 |  |  | 223 nM |  | CN1CCN(c2ccc(-c3n[nH]c4ccc(-c5ccccc5)nc34)cc2)CC1 | 
11 | 2740 nM |  | 28 nM |  | CN1CCN(c2ccc(-c3n[nH]c4ccc(-c5ccccc5F)nc34)cc2)CC1 | 
12 | 144 nM | 18.3 mL/min/kg | < 1 nM |  | COc1cccc(F)c1-c1cc2c(-c3ccc(N4CCN(C)CC4)cc3)n[nH]c2cn1 | 
13 | 258 nM | > 18.3 mL/min/kg | 2.5 nM |  | COc1cccc(F)c1-c1ncc2[nH]nc(-c3ccc(N4CCN(C)CC4)cc3)c2n1 | 
14 | 148 nM | 13.3 mL/min/kg | 2 nM |  | COc1cccc(F)c1-c1cc2c(-c3cnn(C)c3)n[nH]c2cn1 | 
15 | 395 nM | > 18.3 mL/min/kg | 3 nM |  | COc1cccc(F)c1-c1ccc2[nH]nc(-c3ccc(N4CCN(C)CC4)cc3)c2n1 | 
16 | 128 nM | < 8.33 mL/min/kg | 3.5 nM | 1.6 ×10⁻⁶ cm/s | CNCc1cc(F)c(-c2cc3c(-c4cnn(C)c4)n[nH]c3cn2)c(C(F)(F)F)c1 | IC50 [13]: > 25000 nM; IC50 [14]: 2230 nM; IC50 [15]: 1980 nM; inhibition (INH) [17]: Tde; IC50 [16]: > 25000 nM
17 | 137 nM | < 8.33 mL/min/kg | 5 nM | 1.4 ×10⁻⁶ cm/s | CCNCc1cc(C)c(-c2cc3c(-c4cnn(C)c4)n[nH]c3cn2)c(F)c1 | clearance [4]: 11 mL/min/kg; bioavailability [5]: 16%; Vdss [7]: 3.9 L/kg; AUC at 24 h [8]: 1.64 µM·h; half-life [9]: 6.3 h; AUC at 24 h [10]: 0.761 µM·h; clearance [11]: 102 mL/min/kg; fraction unbound [12]: 0.61
